Measurements from publication PMC5218480 (PLoS ONE, 2017).

Test system: MV-4-11 cells
Experiment: Gene expression microarray analysis (Affymetrix PrimeView) and GSEA
Type: cell-based, human
Set-up: RFU PODN (11730768_x_at) / Fold change /veh PODN (11730768_x_at) / RFU LINC00158 (11744669_a_at) / Fold change /veh LINC00158 (11744669_a_at) / RFU DUSP10 (11751237_a_at) / Fold change /veh DUSP10 (11751237_a_at) / RFU ID3 (11757404_x_at) / Fold change /veh ID3 (11757404_x_at) / RFU PLEKHG5 (11737974_s_at) / Fold change /veh PLEKHG5 (11737974_s_at) / RFU LRRC4B (11730491_at) / Fold change /veh LRRC4B (11730491_at) / RFU GIMAP4 (11747438_a_at) / Fold change /veh GIMAP4 (11747438_a_at) / RFU KRT8 (11758183_x_at) / Fold change /veh KRT8 (11758183_x_at) / RFU CNN1 (11734310_a_at) / Fold change /veh CNN1 (11734310_a_at) / RFU VPS37D (11726825_at) / Fold change /veh VPS37D (11726825_at) / RFU C10orf10 (11716522_x_at) / Fold change /veh C10orf10 (11716522_x_at) / RFU KIR2DL2 /// KIR2DL4 /// KIR2DL5A /// KIR2DL5B /// KIR2DS1 /// KIR2DS2 /// KIR2DS3 /// KIR2DS4 /// KIR3DL3 /// KIR3DL3 /// KIR3DS1 (11738374_at) / Fold change /veh KIR2DL2 /// KIR2DL4 /// KIR2DL5A /// KIR2DL5B /// KIR2DS1 /// KIR2DS2 /// KIR2DS3 /// KIR2DS4 /// KIR3DL3 /// KIR3DL3 /// KIR3DS1 (11738374_at) / RFU C1QL1 (11718748_at) / Fold change /veh C1QL1 (11718748_at) / RFU TMPRSS4 (11747572_a_at) / Fold change /veh TMPRSS4 (11747572_a_at) / RFU HAMP (11756126_x_at) / Fold change /veh HAMP (11756126_x_at) / RFU RNFT2 (11725882_a_at) / Fold change /veh RNFT2 (11725882_a_at) / RFU NR4A2 (11747474_a_at) / Fold change /veh NR4A2 (11747474_a_at) / RFU ABCC12 (11746883_a_at) / Fold change /veh ABCC12 (11746883_a_at) / RFU TMEM136 (11760407_x_at) / Fold change /veh TMEM136 (11760407_x_at) / RFU CLDN22 /// WWC2 (11732394_at) / Fold change /veh CLDN22 /// WWC2 (11732394_at) / RFU HLA-DPB1 (11760878_x_at) / Fold change /veh HLA-DPB1 (11760878_x_at) / RFU SPINT1 (11716480_a_at) / Fold change /veh SPINT1 (11716480_a_at) / RFU GAP43 (11754022_s_at) / Fold change /veh GAP43 (11754022_s_at) / RFU A4GNT (11735810_at) / Fold change /veh A4GNT (11735810_at) / RFU PRB3 (11715151_x_at) / Fold change /veh PRB3 (11715151_x_at) / RFU TUBB4B (11761932_at) / Fold change /veh TUBB4B (11761932_at) / RFU CAPN14 (11732068_a_at) / Fold change /veh CAPN14 (11732068_a_at) / RFU TMCC2 (11721928_a_at) / Fold change /veh TMCC2 (11721928_a_at) / RFU IRGQ (11745062_a_at) / Fold change /veh IRGQ (11745062_a_at) / RFU FAM174B (11720279_a_at) / Fold change /veh FAM174B (11720279_a_at) / RFU TMPRSS4 (11748680_a_at) / Fold change /veh TMPRSS4 (11748680_a_at) / RFU FAM212B (11763350_a_at) / Fold change /veh FAM212B (11763350_a_at) / RFU PLEKHG5 (11743358_a_at) / Fold change /veh PLEKHG5 (11743358_a_at) / RFU ZSCAN30 (11745921_a_at) / Fold change /veh ZSCAN30 (11745921_a_at) / RFU CMKLR1 (11741424_a_at) / Fold change /veh CMKLR1 (11741424_a_at) / RFU LOC101060620 /// MAPK8IP1 (11723275_at) / Fold change /veh LOC101060620 /// MAPK8IP1 (11723275_at) / RFU SPTSSB (11747773_x_at) / Fold change /veh SPTSSB (11747773_x_at) / RFU PRSS12 (11739890_at) / Fold change /veh PRSS12 (11739890_at) / RFU BIN1 (11741810_x_at) / Fold change /veh BIN1 (11741810_x_at) / RFU WNT11 (11732464_a_at) / Fold change /veh WNT11 (11732464_a_at) / RFU C10orf10 (11716521_a_at) / Fold change /veh C10orf10 (11716521_a_at) / RFU C5orf56 (11738089_at) / Fold change /veh C5orf56 (11738089_at) / RFU CYB561 (11721691_x_at) / Fold change /veh CYB561 (11721691_x_at) / RFU ANKRD19P (11752326_a_at) / Fold change /veh ANKRD19P (11752326_a_at) / RFU OR2T12 /// OR2T33 /// OR2T8 (11738714_s_at) / Fold change /veh OR2T12 /// OR2T33 /// OR2T8 (11738714_s_at) / RFU VCAN (11748164_a_at) / Fold change /veh VCAN (11748164_a_at) / RFU JSRP1 (11732532_at) / Fold change /veh JSRP1 (11732532_at) / RFU KRTAP10-11 (11738290_x_at) / Fold change /veh KRTAP10-11 (11738290_x_at) / RFU MYO3A (11730013_a_at) / Fold change /veh MYO3A (11730013_a_at) / RFU EBF3 (11725865_a_at) / Fold change /veh EBF3 (11725865_a_at) / RFU CAMK2N1 (11719241_x_at) / Fold change /veh CAMK2N1 (11719241_x_at) / RFU C5orf56 (11738088_a_at) / Fold change /veh C5orf56 (11738088_a_at) / RFU OLFML3 (11715873_a_at) / Fold change /veh OLFML3 (11715873_a_at) / RFU LOC100653217 /// NTM (11731650_a_at) / Fold change /veh LOC100653217 /// NTM (11731650_a_at) / RFU MAPK11 (11762145_a_at) / Fold change /veh MAPK11 (11762145_a_at) / RFU FIZ1 (11724087_x_at) / Fold change /veh FIZ1 (11724087_x_at) / RFU OASL (11726364_x_at) / Fold change /veh OASL (11726364_x_at) / RFU SOX15 (11748057_x_at) / Fold change /veh SOX15 (11748057_x_at) / RFU CD79A (11719716_a_at) / Fold change /veh CD79A (11719716_a_at) / RFU HIST1H1D (11736915_at) / Fold change /veh HIST1H1D (11736915_at) / RFU CASKIN2 (11723855_a_at) / Fold change /veh CASKIN2 (11723855_a_at) / RFU LOC730098 (11760151_x_at) / Fold change /veh LOC730098 (11760151_x_at) / RFU OR4N2 (11742367_at) / Fold change /veh OR4N2 (11742367_at) / RFU PRRT2 (11749266_a_at) / Fold change /veh PRRT2 (11749266_a_at) / RFU SNX32 (11753110_a_at) / Fold change /veh SNX32 (11753110_a_at) / RFU CDHR5 (11726645_a_at) / Fold change /veh CDHR5 (11726645_a_at) / RFU RCAN1 (11760418_a_at) / Fold change /veh RCAN1 (11760418_a_at) / RFU FAM167A (11723789_a_at) / Fold change /veh FAM167A (11723789_a_at) / RFU FAM26E (11764081_at) / Fold change /veh FAM26E (11764081_at) / RFU ISYNA1 (11749810_s_at) / Fold change /veh ISYNA1 (11749810_s_at) / RFU ACY1 (11761880_at) / Fold change /veh ACY1 (11761880_at) / RFU 11764098_at / Fold change /veh 11764098_at / RFU SAMD14 (11745864_x_at) / Fold change /veh SAMD14 (11745864_x_at) / RFU NPB (11741838_a_at) / Fold change /veh NPB (11741838_a_at) / RFU TMPRSS6 (11731388_a_at) / Fold change /veh TMPRSS6 (11731388_a_at) / RFU KRTAP10-2 (11738614_at) / Fold change /veh KRTAP10-2 (11738614_at) / RFU ARHGAP8 /// PRR5-ARHGAP8 (11727945_x_at) / Fold change /veh ARHGAP8 /// PRR5-ARHGAP8 (11727945_x_at) / RFU KRTAP5-7 /// NADSYN1 (11734609_at) / Fold change /veh KRTAP5-7 /// NADSYN1 (11734609_at) / RFU RASL12 (11751679_a_at) / Fold change /veh RASL12 (11751679_a_at) / RFU CDKN2B (11736163_a_at) / Fold change /veh CDKN2B (11736163_a_at) / RFU PRF1 (11729649_at) / Fold change /veh PRF1 (11729649_at) / RFU, ZNF638 /// ZNF638-IT1 / Fold change vs veh, ZNF638 /// ZNF638-IT1 / RFU, PANK3 / Fold change vs veh, PANK3 / RFU, SH3YL1 / Fold change vs veh, SH3YL1 / RFU, ZEB2 / Fold change vs veh, ZEB2 / RFU, NRIP1 / Fold change vs veh, NRIP1 / RFU, PTTG1IP / Fold change vs veh, PTTG1IP / RFU, CAPN2 / Fold change vs veh, CAPN2 / RFU, MED14 / Fold change vs veh, MED14 / RFU, SNORA58 / Fold change vs veh, SNORA58 / RFU, C1orf63 / Fold change vs veh, C1orf63 / RFU, LRRFIP1 / Fold change vs veh, LRRFIP1 / RFU, NDUFAF7 / Fold change vs veh, NDUFAF7 / RFU, SLC12A2 / Fold change vs veh, SLC12A2 / RFU, IBTK / Fold change vs veh, IBTK / RFU, ESF1 / Fold change vs veh, ESF1 / Fold change vs veh, TMEM50B / RFU, TAOK1 / Fold change vs veh, TAOK1 / RFU, ACBD3 / Fold change vs veh, ACBD3 / RFU, TMA16 / Fold change vs veh, TMA16 / RFU, RWDD3 / Fold change vs veh, RWDD3 / RFU, BCAT1 / Fold change vs veh, BCAT1 / RFU, EDEM3 / Fold change vs veh, EDEM3 / RFU, TMEM33 / Fold change vs veh, TMEM33 / RFU, WDR75 / Fold change vs veh, WDR75 / RFU, AHCTF1 / Fold change vs veh, AHCTF1 / RFU, TFRC / Fold change vs veh, TFRC / RFU, ZDHHC17 / Fold change vs veh, ZDHHC17 / RFU, NOM1 / Fold change vs veh, NOM1 / RFU, ARL8B / Fold change vs veh, ARL8B / RFU, ZBTB11 / Fold change vs veh, ZBTB11 / RFU, TAMM41 / Fold change vs veh, TAMM41 / RFU, KIAA1704 /// LOC100996395 / Fold change vs veh, KIAA1704 /// LOC100996395 / RFU, ING1 / Fold change vs veh, ING1 / RFU, TRMT61B / Fold change vs veh, TRMT61B / RFU, FUBP3 / Fold change vs veh, FUBP3 / RFU, TP53 / Fold change vs veh, TP53 / RFU, TNKS2 / Fold change vs veh, TNKS2 / RFU, ZFP14 / Fold change vs veh, ZFP14 / RFU, ACTR2 / Fold change vs veh, ACTR2 / RFU, PPP3R1 / Fold change vs veh, PPP3R1 / RFU, PIK3R1 / Fold change vs veh, PIK3R1 / RFU, HNRNPA1 / Fold change vs veh, HNRNPA1 / RFU, RNF170 / Fold change vs veh, RNF170 / RFU, ZNF28 / Fold change vs veh, ZNF28 / RFU, RNGTT / Fold change vs veh, RNGTT / RFU, OGT / Fold change vs veh, OGT / RFU, BRD1 / Fold change vs veh, BRD1 / RFU, MARS / Fold change vs veh, MARS / RFU, ZNF655 / Fold change vs veh, ZNF655 / RFU, FAHD1 / Fold change vs veh, FAHD1 / RFU, BDP1 / Fold change vs veh, BDP1 / RFU, LRRCC1 / Fold change vs veh, LRRCC1 / RFU, ARID1A / Fold change vs veh, ARID1A / RFU, ZNF146 / Fold change vs veh, ZNF146 / RFU, ZNF330 / Fold change vs veh, ZNF330 / RFU, GPN3 / Fold change vs veh, GPN3 / RFU, C9orf123 / Fold change vs veh, C9orf123 / RFU, N4BP2L2 / Fold change vs veh, N4BP2L2 / RFU, ARFIP1 / Fold change vs veh, ARFIP1 / RFU, FAM179B / Fold change vs veh, FAM179B / RFU, BCL10 / Fold change vs veh, BCL10 / RFU, UHRF1BP1L / Fold change vs veh, UHRF1BP1L / RFU, BET1 / Fold change vs veh, BET1 / RFU, CNOT2 / Fold change vs veh, CNOT2 / RFU, ZNF268 / Fold change vs veh, ZNF268 / Fold change vs veh, ZNF507 / RFU, DGCR2 / Fold change vs veh, DGCR2 / RFU, WDSUB1 / Fold change vs veh, WDSUB1 / Fold change vs veh, HSP90B1 /// MIR3652 / RFU, ADSS / Fold change vs veh, ADSS / RFU, GK / Fold change vs veh, GK / RFU, ZNF148 / Fold change vs veh, ZNF148 / RFU, TAF9 / Fold change vs veh, TAF9 / RFU, SLC1A5 / Fold change vs veh, SLC1A5 / RFU, SLMO2 / Fold change vs veh, SLMO2 / RFU, ABCC4 / Fold change vs veh, ABCC4 / RFU, LOC101060439 /// RAP1B / Fold change vs veh, LOC101060439 /// RAP1B / RFU, RFX7 / Fold change vs veh, RFX7 / RFU, GTPBP10 / Fold change vs veh, GTPBP10 / RFU, CNEP1R1 / Fold change vs veh, CNEP1R1 / RFU, BIVM-ERCC5 /// ERCC5 / Fold change vs veh, BIVM-ERCC5 /// ERCC5 / RFU, ILF3 / Fold change vs veh, ILF3 / RFU 11762660_at / Fold change /veh 11762660_at / RFU VCAN (11757783_s_at) / Fold change /veh VCAN (11757783_s_at) / RFU DDX43 (11728927_at) / Fold change /veh DDX43 (11728927_at) / RFU KRT8 (11758188_x_at) / Fold change /veh KRT8 (11758188_x_at) / RFU NKD1 (11759106_at) / Fold change /veh NKD1 (11759106_at) / RFU SRD5A1 (11742802_a_at) / Fold change /veh SRD5A1 (11742802_a_at) / RFU TPSAB1 /// TPSB2 (11721975_s_at) / Fold change /veh TPSAB1 /// TPSB2 (11721975_s_at) / RFU GSTM3 (11746129_a_at) / Fold change /veh GSTM3 (11746129_a_at) / RFU IL23R (11737362_x_at) / Fold change /veh IL23R (11737362_x_at) / RFU TMEM51 (11727254_a_at) / Fold change /veh TMEM51 (11727254_a_at) / RFU PIWIL2 (11732686_x_at) / Fold change /veh PIWIL2 (11732686_x_at) / RFU ORM1 (11744905_x_at) / Fold change /veh ORM1 (11744905_x_at) / RFU CCDC152 (11743942_at) / Fold change /veh CCDC152 (11743942_at) / RFU ECM1 (11717891_a_at) / Fold change /veh ECM1 (11717891_a_at) / RFU IL23R (11748794_a_at) / Fold change /veh IL23R (11748794_a_at) / RFU TNFAIP8L3 (11732012_x_at) / Fold change /veh TNFAIP8L3 (11732012_x_at) / RFU MBOAT4 (11741988_at) / Fold change /veh MBOAT4 (11741988_at) / RFU 11764193_at / Fold change /veh 11764193_at / RFU TMEM53 (11763286_at) / Fold change /veh TMEM53 (11763286_at) / RFU MAGEB2 (11727129_at) / Fold change /veh MAGEB2 (11727129_at) / RFU TMEM200A (11744735_a_at) / Fold change /veh TMEM200A (11744735_a_at) / RFU CCDC152 (11751479_a_at) / Fold change /veh CCDC152 (11751479_a_at) / RFU FAM211A (11726209_a_at) / Fold change /veh FAM211A (11726209_a_at) / RFU RGS16 (11746705_a_at) / Fold change /veh RGS16 (11746705_a_at) / RFU VCAN (11755009_s_at) / Fold change /veh VCAN (11755009_s_at) / RFU RHOB (11743442_s_at) / Fold change /veh RHOB (11743442_s_at) / RFU RGS16 (11720943_a_at) / Fold change /veh RGS16 (11720943_a_at) / RFU RGS16 (11720944_at) / Fold change /veh RGS16 (11720944_at) / RFU, VPS4B / Fold change vs veh, VPS4B / RFU, CREB1 / Fold change vs veh, CREB1 / RFU, DNAJC13 / Fold change vs veh, DNAJC13 / RFU, GNAQ / Fold change vs veh, GNAQ / RFU, CDK5R1 / Fold change vs veh, CDK5R1 / RFU, ZRANB3 / Fold change vs veh, ZRANB3 / RFU, CUL4A / Fold change vs veh, CUL4A / RFU, CCNY / Fold change vs veh, CCNY / RFU, UFL1 / Fold change vs veh, UFL1 / RFU, COG3 / Fold change vs veh, COG3 / RFU, DIAPH2 / Fold change vs veh, DIAPH2 / RFU, SKA2 / Fold change vs veh, SKA2 / RFU, AFF3 / Fold change vs veh, AFF3 / RFU, LMF1 / Fold change vs veh, LMF1 / RFU, IPO11 / Fold change vs veh, IPO11 / RFU, DFFB / Fold change vs veh, DFFB / RFU, FOXP1 / Fold change vs veh, FOXP1 / RFU, CARD8 / Fold change vs veh, CARD8 / RFU, STRN3 / Fold change vs veh, STRN3 / RFU, ADK / Fold change vs veh, ADK / RFU, RASSF2 / Fold change vs veh, RASSF2 / RFU, WIPF1 / Fold change vs veh, WIPF1 / RFU, LARP1B / Fold change vs veh, LARP1B / RFU, RASA1 / Fold change vs veh, RASA1 / RFU, RB1 / Fold change vs veh, RB1 / RFU, PPFIA1 / Fold change vs veh, PPFIA1 / RFU, MAT2A / Fold change vs veh, MAT2A / RFU, CCT5 / Fold change vs veh, CCT5 / RFU, WDR92 / Fold change vs veh, WDR92 / RFU, CUX1 / Fold change vs veh, CUX1 / RFU, TTC7A / Fold change vs veh, TTC7A / RFU, TMEM135 / Fold change vs veh, TMEM135 / RFU, DEPTOR / Fold change vs veh, DEPTOR / RFU, CPM / Fold change vs veh, CPM / RFU, DNAJB6 / Fold change vs veh, DNAJB6 / RFU, CACNA2D3 / Fold change vs veh, CACNA2D3 / RFU, DTX4 / Fold change vs veh, DTX4 / RFU, TFCP2 / Fold change vs veh, TFCP2 / RFU, GMCL1 /// GMCL1P1 / Fold change vs veh, GMCL1 /// GMCL1P1 / RFU, AEBP2 / Fold change vs veh, AEBP2 / RFU, SNHG1 /// SNORD22 /// SNORD25 /// SNORD26 /// SNORD27 /// SNORD28 /// SNORD29 /// SNORD31 / Fold change vs veh, SNHG1 /// SNORD22 /// SNORD25 /// SNORD26 /// SNORD27 /// SNORD28 /// SNORD29 /// SNORD31 / Fold change (Aza/veh), C12orf56 (ProbeSet 11735607_a_at) / Fold change (ACY-1035/veh), C12orf56 (ProbeSet 11735607_a_at) / Fold change (Aza/veh), FGFR1OP (ProbeSet 11751329_s_at) / Fold change (ACY-1035/veh), FGFR1OP (ProbeSet 11751329_s_at) / Fold change (Aza/veh), VPS36 (ProbeSet 11739960_a_at) / Fold change (ACY-1035/veh), VPS36 (ProbeSet 11739960_a_at) / RFU SYPL1 (11715823_x_at) / Fold change /veh SYPL1 (11715823_x_at) / RFU IGFBP7 (11715501_s_at) / Fold change /veh IGFBP7 (11715501_s_at) / RFU REEP3 (11722064_at) / Fold change /veh REEP3 (11722064_at) / RFU IGLL1 (11728026_x_at) / Fold change /veh IGLL1 (11728026_x_at): dose or concentration left out as unconfirmed
Settings: ProbeSet 11719632_a_at; LIST B

SMILES: Nc1ncn([C@@H]2O[C@H](CO)[C@@H](O)[C@H]2O)c(=O)n1 [azacitidine]
- RFU, ABCC4: 39.11 RFU
